According to patent US6506766B1 (Abbott Laboratories, priority 1998, dated 2003):
Read-outs that look alike come from different tables or passages of the source.

Assays:
[1] = molecular target: T1, human glucocorticoid receptor-α [GRX] isoform (Homo sapiens, UniProt P04150); assay: Radioligand binding with human glucocorticoid receptor cytosol ([3H]-dexamethasone competition); details: read-out: Ki (nM) GR
T1 construct: host or cells: insect SF21 cells (baculovirus)
T1 sequence (P04150 1-777): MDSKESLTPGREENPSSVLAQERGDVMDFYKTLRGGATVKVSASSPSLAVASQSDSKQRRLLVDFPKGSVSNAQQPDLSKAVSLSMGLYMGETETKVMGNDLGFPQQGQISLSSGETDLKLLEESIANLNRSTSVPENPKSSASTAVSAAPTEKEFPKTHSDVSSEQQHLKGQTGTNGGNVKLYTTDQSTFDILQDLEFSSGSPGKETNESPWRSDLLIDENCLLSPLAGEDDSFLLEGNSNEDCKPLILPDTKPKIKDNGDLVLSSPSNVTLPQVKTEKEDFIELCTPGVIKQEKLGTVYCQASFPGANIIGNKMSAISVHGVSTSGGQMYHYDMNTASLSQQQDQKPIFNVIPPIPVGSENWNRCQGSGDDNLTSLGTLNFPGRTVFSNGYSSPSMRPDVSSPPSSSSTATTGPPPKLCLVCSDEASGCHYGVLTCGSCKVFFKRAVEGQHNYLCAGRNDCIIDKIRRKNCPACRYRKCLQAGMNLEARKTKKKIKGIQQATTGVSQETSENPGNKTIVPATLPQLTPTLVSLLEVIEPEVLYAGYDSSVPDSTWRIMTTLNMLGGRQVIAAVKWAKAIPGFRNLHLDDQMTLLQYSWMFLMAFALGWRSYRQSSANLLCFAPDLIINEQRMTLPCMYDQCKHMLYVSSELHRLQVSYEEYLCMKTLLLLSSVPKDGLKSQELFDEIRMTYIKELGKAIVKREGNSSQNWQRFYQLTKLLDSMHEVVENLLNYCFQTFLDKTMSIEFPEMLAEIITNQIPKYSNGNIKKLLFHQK

[2] = molecular target: T2, human progesterone receptor-A [PRA] isoform (Homo sapiens, UniProt P06401); assay: Radioligand binding with human progesterone receptor cytosol ([3H]-progesterone competition); details: read-out: Ki (nM) PR
T2 construct: host or cells: insect SF21 cells (baculovirus)
T2 sequence (P06401 1-769 isoform P06401-2): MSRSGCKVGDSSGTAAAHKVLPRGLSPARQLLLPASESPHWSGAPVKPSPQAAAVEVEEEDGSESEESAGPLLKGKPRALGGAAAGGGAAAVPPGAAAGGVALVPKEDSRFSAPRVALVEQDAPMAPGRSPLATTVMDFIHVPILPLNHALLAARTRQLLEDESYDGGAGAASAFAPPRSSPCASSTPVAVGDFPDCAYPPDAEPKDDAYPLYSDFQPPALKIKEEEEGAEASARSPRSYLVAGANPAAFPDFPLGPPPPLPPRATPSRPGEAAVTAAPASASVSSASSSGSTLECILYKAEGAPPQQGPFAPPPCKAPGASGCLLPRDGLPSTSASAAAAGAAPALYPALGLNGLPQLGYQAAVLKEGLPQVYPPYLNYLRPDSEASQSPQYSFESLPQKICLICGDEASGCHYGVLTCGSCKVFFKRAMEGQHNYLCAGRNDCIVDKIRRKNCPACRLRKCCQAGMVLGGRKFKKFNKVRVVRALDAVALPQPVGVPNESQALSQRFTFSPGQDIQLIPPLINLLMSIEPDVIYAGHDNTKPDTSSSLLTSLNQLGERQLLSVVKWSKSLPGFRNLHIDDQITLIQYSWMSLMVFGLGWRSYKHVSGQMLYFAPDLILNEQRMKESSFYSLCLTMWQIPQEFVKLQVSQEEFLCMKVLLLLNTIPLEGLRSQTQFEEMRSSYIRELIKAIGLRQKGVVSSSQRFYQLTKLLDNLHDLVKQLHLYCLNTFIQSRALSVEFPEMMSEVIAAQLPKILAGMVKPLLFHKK

[3] = GRX cytosol expressed in insect SF21 cells, [3H]-Dex ~0.9 nM, 4° C. overnight, Ki by Cheng-Prusoff, KL ~[…]
[4] = PRA cytosol expressed in insect SF21 cells, [3H]Prog ~0.8 nM, 4° C. overnight, Ki by Cheng-Prusoff, KL ~4.5 nM

Compound | Ki [1, 3] | Ki [2, 4] | Ki [1] | Ki [2]
COc1cccc2c1-c1ccc3c(c1C(c1ccc(C)c(F)c1)O2)C(C)=CC(C)(C)N3 (stereo not drawn) [Example 51] | 18 nM | 7330 nM |  | 
CCOC(=N)C1Oc2cccc(OC)c2-c2ccc3c(c21)C(C)=CC(C)(C)N3 (stereo not drawn) [Example 61, 2,5-Dihydro-10-methoxy-2,2,4-trimethyl-1H-[1]benzopyrano[3,4-f]quinoline-5-carboximidic Acid Ethyl Ester] | 62 nM | 14400 nM |  | 
COc1cccc2c1-c1ccc3c(c1C(CC(=O)N(C)C)O2)C(C)=CC(C)(C)N3 (stereo not drawn) [Example 63, 2,5-Dihydro-10-methoxy-2,2,4,N,N-pentamethyl-1H-[1]benzopyrano[3,4-f]quinoline-5-acetamide] | 511 nM | ≥ 10000 nM |  | 
COc1cccc2c1-c1ccc3c(c1C(CC(=O)NC1CC1)O2)C(C)=CC(C)(C)N3 (stereo not drawn) [Example 65, N-Cyclopropyl-2,5-Dihydro-10-methoxy-2,2,4-trimethyl-1H-[1]benzopyrano[3,4-f]quinoline-5-acetamide] | 591 nM | ≥ 10000 nM |  | 
COc1cccc2c1-c1ccc3c(c1C(C1C=CC(=O)O1)O2)C(C)=CC(C)(C)N3 (stereo not drawn) [Example 67, 5-(2,5-Dihydro-10-methoxy-2,2,4-trimethyl-1H-[1]benzopyrano[3,4-f]quinolin-5-yl)2(5H)-furanone] | 21.7 nM | ≥ 10000 nM |  | 
CCc1cccc2c1-c1ccc3c(c1C(c1ccccc1)O2)C(C)=CC(C)(C)N3 (stereo not drawn) [Example 70, 10-Ethyl-2,5-dihydro-2,2,4-trimethyl-5-phenyl-1H-[1]benzopyrano[3,4-f]quinoline] | 25.5 nM | 7300 nM |  | 
CCc1cccc2c1-c1ccc3c(c1C(c1cc(Cl)cc(Cl)c1)O2)C(C)=CC(C)(C)N3 (stereo not drawn) [Example 72, 5-(3,5-Dichlorophenyl)-10-ethyl-2,5-dihydro-2,2,4-trimethyl-1H-[1]benzopyrano[3,4-f]quinoline] | 17.8 nM | 1450 nM |  | 
C=CCOc1cccc2c1-c1ccc3c(c1C(c1ccccc1)O2)C(C)=CC(C)(C)N3 (stereo not drawn) [Example 76, 2,5-Dihydro-2,2,4-trimethyl-5-phenyl-10-(2-prenyloxy)-1H-[1]benzopyrano[3,4-f]quinoline] | 152 nM | ≥ 10000 nM |  | 
CCOc1cccc2c1-c1ccc3c(c1C(c1cc(Cl)cc(Cl)c1)O2)C(C)=CC(C)(C)N3 (stereo not drawn) [Example 79, 5-(3,5-Dichlorophenyl)-10-ethoxy-2,5-dihydro-2,2,4-trimethyl-1H-[1]benzopyrano[3,4-f]quinoline] | 19.2 nM | ≥ 10000 nM |  | 
CC1=CC(C)(C)Nc2ccc3c(c21)C(c1cc(Cl)cc(Cl)c1)Oc1cccc(O)c1-3 (stereo not drawn) [Example 80, 5-(3,5-Dichlorophenyl)-2,5-dihydro-2,2,4-trimethyl-1H-[1]benzopyrano[3,4-f]quinolin-10-ol] | 168 nM | ≥ 10000 nM |  | 
COC(=O)Oc1cccc2c1-c1ccc3c(c1C(c1cc(Cl)cc(Cl)c1)O2)C(C)=CC(C)(C)N3 (stereo not drawn) [Example 81] | 155 nM | ≥ 10000 nM |  | 
C=CCC1Oc2cccc(O)c2-c2ccc3c(c21)C(C)=CC(C)(C)N3 (stereo not drawn) [Example 82, 2,5-Dihydro-2,2,4-trimethyl-5-(2-propenyl)-1H-1benzopyrano[3,4-f]quinolin-10-ol] | 22.9 nM | 327 nM |  | 
C=CCC1Oc2cccc(OC(F)(F)Br)c2-c2ccc3c(c21)C(C)=CC(C)(C)N3 (stereo not drawn) [Example 83, 10-(Bromodifluoromethoxy)-2,5-dihyro-2,2,4-trimethyl-5-(2-propenyl)-1H-[1]benzopyrano[3,4-f]quinoline] | 54.8 nM | 2210 nM |  | 
COC(=O)Oc1cccc(C2Oc3cccc(OC)c3-c3ccc4c(c32)C(C)=CC(C)(C)N4)c1 (stereo not drawn) [Example 84, [3-(2,5-Dihydro-10-methoxy-2,2,4-trimethyl-1H-[1]benzopyrano[3,4-f]quinolin-5-yl)phenyl]methylcarbonate] |  |  | 17.3 nM | ≥ 10000 nM

The remaining compounds from weak to strong by Ki [1, 3], led by results:

Ki [1, 3] | Ki [2, 4] | Compound | Ki [1] | Ki [2]
14 nM | 10500 nM | CCC1Oc2cccc(OC)c2-c2ccc3c(c21)C(C)=CC(C)(C)N3 (stereo not drawn) [Example 60, 5-Ethyl-2,5-dihydro-10-methoxy-2,2,4-trimethyl-1H-[1]benzopyrano[3,4-f]quinoline] |  | 
11.9 nM | 4880 nM | C=CCNc1cccc2c1-c1ccc3c(c1C(c1cc(Cl)cc(Cl)c1)O2)C(C)=CC(C)(C)N3 (stereo not drawn) [Example 74, 5-(3,5-Dichlorophenyl)-2,5-dihydro-2,2,4-trimethyl-N-(2-propenyl)-1H-[1]benzopyrano[3,4-f]quinolin-10-amine] |  | 
10.3 nM | 4500 nM | CNc1cccc2c1-c1ccc3c(c1C(c1cc(Cl)cc(Cl)c1)O2)C(C)=CC(C)(C)N3 (stereo not drawn) [Example 73, 5-(3,5-Dichlorophenyl)-2,5-dihydro-2,2,4,N-tetramethyl-1H[1]benzopyrano[3,4-f]quinolin-10-amine] |  | 
9.5 nM | 16600 nM | COc1cccc2c1-c1ccc3c(c1C(CC(C)C)O2)C(C)=CC(C)(C)N3 (stereo not drawn) [Example 59, 2,5-Dihydro-10-methoxy-2,2,4-trimethyl-5-(2-methlpropyl)-1H-[1]benzopyrano[3,4-f]quinoline] |  | 
9 nM | 8570 nM | COc1cccc2c1-c1ccc3c(c1C(C(C)C)O2)C(C)=CC(C)(C)N3 (stereo not drawn) [Example 58, 2,5-Dihydro-10-methoxy-2,2,4-trimethyl-5-(1-methylethyl)-1H-[1]benzopyrano[3,4-f]quinoline] |  | 
8.2 nM | ≥ 10000 nM | COc1cccc2c1-c1ccc3c(c1C(c1ccc(F)c(C)c1)O2)C(C)=CC(C)(C)N3 (stereo not drawn) [Example 55] |  | 
8 nM | 9050 nM | C=CCCC1Oc2cccc(OC)c2-c2ccc3c(c21)C(C)=CC(C)(C)N3 (stereo not drawn) [Example 68, 5-(32-Butenyl)-2,5-dihdro-10-methoxy-2,2,4-trimethyl-1H -1H-[1]benzopyrano[3,4-f]quinoline] |  | 
7.7 nM | 484 nM | CC1=CC(C)(C)Nc2ccc3c(c21)C(c1ccccc1)Oc1cccc(C)c1-3 (stereo not drawn) [Example 71, 2,5-Dihydro-2,2,4,10-tetrametnyl-5-phenyl-1H-[1]benzopyrano[3,4-f]quinoline] |  | 
7.3 nM | 13800 nM | C#CCOc1cccc2c1-c1ccc3c(c1C(c1ccccc1)O2)C(C)=CC(C)(C)N3 (stereo not drawn) [Example 75, 2,5-Dihydro-2,2,4-trimethyl-5-phenyl-10-(2-propynyloxy)-1H-[1]benzopyrano[3,4-f]quinoline] |  | 
6.2 nM | ≥ 10000 nM | COc1cccc2c1-c1ccc3c(c1C(c1cccc(F)c1)O2)C(C)=CC(C)(C)N3 (stereo not drawn) [Example 56, 5-(3-Fluorophenyl)-2,5-Dihydro-10-methoxy-2,2,4-trimethyl-1H-[1]benzopyrano[3,4-f]quinoline] |  | 
4.9 nM | 9450 nM | COc1cccc2c1-c1ccc3c(c1C(c1ccc(C)cc1)O2)C(C)=CC(C)(C)N3 (stereo not drawn) [Example 50, 2,5-Dihydro-10-methoxy-2,2,4-tnimethyl-5-(4-methylphenyl)-1H-[1]benzopyrano[3,4-f]quinoline] |  | 
3 nM | 2270 nM | COc1cccc2c1-c1ccc3c(c1C(c1cccc(Br)c1)O2)C(C)=CC(C)(C)N3 (stereo not drawn) [Example 52, 5-(3-Bromophenyl)-2,5-dihydro-10-methoxy-2,2,4-trimethyl-1H-[1]benzopyrano[3,4-f]quinoline] |  | 
1.6 nM | 173 nM | C=CCC1Oc2cccc(CO)c2-c2ccc3c(c21)C(C)=CC(C)(C)N3 (stereo not drawn) [Example 77, 2,5-Dihydro-2,2,4-trimethyl-5-(2-propenyl)-1H-[1]benzopyrano[3,4-f]quinoline-10-methanol] |  | 
